Source: patent US9725442B2, “Heterocyclic derivative having PGD2 receptor antagonist activity” (Shionogi & Co., Ltd., priority 2011, dated 2017)
Like-named read-outs stand apart in the source and are kept apart here.

Legend:
CYP1A2 = CYP1A2 (Homo sapiens (Human), UniProt P05177); assay: CYP inhibition test, 7-ethoxyresorufin O-deethylation; format: in vitro ADME; details: pooled human hepatic microsome, 0.5 μmol/L ethoxyresorufin
From the text: Using commercially available pooled human hepatic microsome, and employing, as markers, 7-ethoxyresorufin O-deethylation (CYP1A2), tolbutamide methyl-hydroxylation (CYP2C9), mephenyloin 4′-hydroxylation (CYP2C19), dextromethorphan O-demethylation (CYP2D6), and terfenedine hydroxylation as typical substrate metabolism reactions of human main five CYP enzyme forms (CYP1A2, 2C9, 2C19, 2D6, 3A4), an inhibitory degree of each metabolite production amount by a compound of the present compound was assessed.
The reaction conditions were as follows: substrate, 0.5 μmol/L ethoxyresorufin (CYP1A2), 100 μmol/L tolbutamide (CYP2C9), 50 μmol/L S-mephenyloin (CYP2C19), 5 μmol/L dextromethorphan (CYP2D6), 1 μmol/L terfenedine (CYP3A4); reaction time, 15 minutes; reaction temperature, 37° C.; enzyme, pooled human hepatic microsome 0.2 mg protein/mL; concentration of a compound of the present invention, 1, 5, 10, 20 μmol/L (four points).
Each five kinds of substrates, human hepatic microsome, or a compound of the present invention in 50 mM Hepes buffer as a reaction mixture was added to a 96-well plate at the composition as described above, NADPH, as a cofactor was added to initiate metabolism reactions as markers and. After the incubation at 37° C. for 15 minutes, a methanol/acetonitrile=1/1 (v/v) solution was added to stop the reaction. After the centrifugation at 3000 rpm for 15 minutes, resorufin (CYP1A2 metabolite) in the supernatant was quantified by a fluorescent multilabel counter and tolbutamide hydroxide (CYP2C9 metabolite), mephenyloin 4′ hydroxide (CYP2C19 metabolite), dextrorphan (CYP2D6 metabolite), and terfenadine alcohol (CYP3A4 metabolite) were quantified by LC/MS/MS.

CRTH2 [1] = target: T1, CRTH2 (Homo sapiens (Human), UniProt Q9Y5Y4); assay: CRTH2 receptor binding inhibitory activity ([3H]-PGD2 displacement, membranes of CRTH2-expressing K562 cell); details: [3H]-PGD2 displacement, membrane of CRTH2-expressing K562 cell, read-out: Ki
T1 sequence (Q9Y5Y4 whole entry): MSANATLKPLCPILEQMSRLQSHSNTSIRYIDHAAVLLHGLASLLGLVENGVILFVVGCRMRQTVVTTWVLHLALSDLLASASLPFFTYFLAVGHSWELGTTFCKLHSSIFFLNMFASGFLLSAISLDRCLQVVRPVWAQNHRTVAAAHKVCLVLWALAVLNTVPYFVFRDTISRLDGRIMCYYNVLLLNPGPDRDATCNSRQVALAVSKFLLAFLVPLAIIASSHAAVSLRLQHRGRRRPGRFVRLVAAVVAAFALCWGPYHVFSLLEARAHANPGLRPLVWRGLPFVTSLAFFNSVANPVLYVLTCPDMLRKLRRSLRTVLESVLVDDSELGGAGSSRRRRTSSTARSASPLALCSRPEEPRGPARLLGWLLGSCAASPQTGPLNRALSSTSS
In short: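 CRTH2-expressing K562 membranes (20 μg/well) in 50 mM Tris/HCl pH 7.4 with 10 mM MgCl2 were incubated with [3H]-PGD2 for 60 min at room temperature, then filtered.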

[2] = target: CYP3A4 enzyme expressed in Escherichia coli (Homo sapiens (Human), UniProt P08684); assay: CYP3A4 fluorescent MBI test; format: in vitro ADME; details: pre-reaction time 0 or 30 minutes, substrate 7-BFC; read-out: CYP3A4 MBI, difference between IC50 values with and without preincubation
Chain of CYP3A4 enzyme expressed in Escherichia coli (P08684 whole entry): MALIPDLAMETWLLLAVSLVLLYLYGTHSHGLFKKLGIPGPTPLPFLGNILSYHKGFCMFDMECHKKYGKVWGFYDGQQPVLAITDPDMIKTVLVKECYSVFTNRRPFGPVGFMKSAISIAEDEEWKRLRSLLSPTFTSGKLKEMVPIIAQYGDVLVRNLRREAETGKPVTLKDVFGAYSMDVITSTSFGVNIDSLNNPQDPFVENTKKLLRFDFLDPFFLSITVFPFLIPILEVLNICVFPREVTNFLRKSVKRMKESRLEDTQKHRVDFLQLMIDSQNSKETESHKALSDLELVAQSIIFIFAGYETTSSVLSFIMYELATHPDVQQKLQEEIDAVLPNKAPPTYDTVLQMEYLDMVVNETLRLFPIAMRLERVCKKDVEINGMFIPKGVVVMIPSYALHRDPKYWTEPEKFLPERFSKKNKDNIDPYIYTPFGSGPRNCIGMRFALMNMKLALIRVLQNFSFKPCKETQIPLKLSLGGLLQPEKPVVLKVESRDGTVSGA
Protocol: The CYP3A4 fluorescent MBI test is a test of investigating enhancement of CYP3A4 inhibition of a compound by a metabolism reaction, and the test was performed using, as CYP3A4 enzyme expressed in Escherichia coli and employing, as an index, a reaction in which 7-benzyloxytrifluoromethylcoumarin (7-BFC) is debenzylated by the CYP3A4 enzyme to produce a metabolite, 7-hydroxytrifluoromethylcoumarin (HFC) emitting fluorescent light.
The reaction conditions were as follows: substrate, 5.6 μmol/L 7-BFC; pre-reaction time, 0 or 30 minutes; reaction time, 15 minutes; reaction temperature, 25° C. (room temperature); CYP3A4 content (expressed in Escherichia coli), at pre-reaction […], at reaction […] (at 10-fold dilution); concentration of a compound of the present, 0.625, 1.25, 2.5, 5, 10, 20 μmol/L (six points).
An enzyme in a K-Pi buffer (pH 7.4) and a compound solution of the present invention as a pre-reaction mixture were added to a 96-well plate at the composition of the pre-reaction, a part of it was transferred to another 96-well plate so that it was 1/10 diluted by a substrate in a K-Pi buffer, NADPH as a co-factor was added to initiate a reaction as an index (without preincubation) and, after a predetermined time of a reaction, acetonitrile/0.5 mol/L Tris(trishydroxyaminomethane)=4/1 (V/V) was added to stop the reaction. In addition, NADPH was added to a remaining preincubation solution to initiate a preincubation (with preincubation) and, after a predetermined time of a preincubation, a part was transferred to another plate so that it was 1/10 diluted with a substrate and a K-Pi buffer to initiate a reaction as an index. After a predetermined time of a reaction, acetonitrile/0.5 mol/L Tris(trishydroxyaminomethane)=4/1 (V/V) was added to stop the reaction. For the plate on which each index reaction had been performed, a fluorescent value of 7-HFC which is a metabolite was measured with a fluorescent plate reader. (Ex=420 nm, Em=535 nm).

[3] = BA test (oral absorbability); format: in vivo; details: rat, plasma; Rats, Oral administration 1 mg/kg
Protocol: An experimental material and a method for examining oral absorbability • (1) Animals used: rats or mice were used. • (2) Breeding condition: chow and sterilized tap water were allowed to be taken in freely. • (3) Setting of a dosage and grouping: a predetermined dosage was administered orally or intravenously. Groups were formed as shown below. (A dosage varied depending on each compound) Oral administration 1-30 mg/kg (n=2 to 3) Intravenous administration 0.5-10 mg/kg (n=2 to 3) • (4) Preparation of administered liquid: In oral administration, a solution or suspension was administered. […] In intravenous administration, administration from the caudal vein was conducted using a syringe with an injection needle. • (6) Evaluation item: Blood was chronologically collected, and then the concentration of a compound of the present invention blood plasma was measured using a LC/MS/MS. • (7) Statistical analysis: With regard to a shift in plasma concentration, the plasma concentration-time area under the curve (AUC) was calculated using a nonlinear least-squares program WinNonlin®. Bioavailability (BA) was calculated from the AUCs of the oral administration group and the intravenous administration group, respectively. […]

CRTH2 [4] = target: T1, CRTH2; assay: CRTH2 inhibitory activity in human eosinophil (PGD2 induced eosinophil shape change); format: cell-based; details: human peripheral blood, 40 nM PGD2, forward scatter; read-out: IC50, inhibition of PGD2 induced eosinophil shape change
Protocol: CRTH2 inhibitory activity in human eosinophil was determined as inhibitory activity of PGD2 induced eosinophil shape change.
Human peripheral blood was mixed with compounds of the present invention at 37° C. After 5 min, the blood was treated with 40 nM of PGD2 for 10 min and fixed. The blood was hemolyzed and centrifuged. Blood cells were resuspended in PBS and measured forward scatter (FS) using flow cytometer (FACSAria). Inhibition ratio was defined by comparing FS with and without compound, and IC50 for each compound was calculated from inhibitory curve.

[5] = CRTH2 receptor binding, categorized AAAA/AAA

Chain of CYP1A2 (P05177 whole entry): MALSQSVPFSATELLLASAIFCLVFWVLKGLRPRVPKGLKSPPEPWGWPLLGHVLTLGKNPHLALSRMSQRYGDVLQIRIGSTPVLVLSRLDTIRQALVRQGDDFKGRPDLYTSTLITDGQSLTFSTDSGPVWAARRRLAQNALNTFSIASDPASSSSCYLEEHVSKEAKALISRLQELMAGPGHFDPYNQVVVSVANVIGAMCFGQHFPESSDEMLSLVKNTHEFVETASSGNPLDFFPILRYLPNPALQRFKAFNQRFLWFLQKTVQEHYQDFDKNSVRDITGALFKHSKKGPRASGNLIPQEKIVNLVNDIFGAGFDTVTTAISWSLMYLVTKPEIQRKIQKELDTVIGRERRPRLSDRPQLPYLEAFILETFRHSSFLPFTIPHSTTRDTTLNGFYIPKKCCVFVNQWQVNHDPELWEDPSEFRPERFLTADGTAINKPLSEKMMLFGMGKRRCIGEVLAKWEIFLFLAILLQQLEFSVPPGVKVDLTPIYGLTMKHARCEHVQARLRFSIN

In the case of `CC(C)Oc1ccc(S(=O)(=O)N2C[C@@H](C)[C@@H](n3nc(CC(=O)O)c4ccc(F)cc43)C2)cn1` [Compound I-57], the IC50 (CYP1A2) is reported as greater than 20000 nM, the Ki (CRTH2 [1]; [5]) is reported as less than 100 nM and the Ki (CRTH2 [1]) is reported as 3.8 nM. For the same molecule, the difference in IC50 with vs without preincubation [2] was no more than 3000 nM.
In the case of `CC(C)Oc1ccc(S(=O)(=O)N2C[C@@H](C)[C@@H](n3nc(CC(=O)O)c4ccc(F)cc43)C2)cc1` [Compound I-37], the bioavailability [3] is reported as 71%, the IC50 (CRTH2 [4]) is reported as 15 nM and the IC50 (CYP1A2) is reported as greater than 20000 nM. It also gave a Ki (CRTH2 [1]) of 2.4 nM and a difference in IC50 with vs without preincubation [2] of no more than 3000 nM.
Molecule `CCOc1ccc(S(=O)(=O)N2C[C@@H](C)[C@@H](n3nc(CC(=O)O)c4ccccc43)C2)cn1` [Compound I-96] has a bioavailability [3] of 82%, an IC50 (CRTH2 [4]) of 270 nM and an IC50 (CYP1A2) greater than 20000 nM. For the same molecule, the Ki (CRTH2 [1]; [5]) was less than 100 nM, the Ki (CRTH2 [1]) was 37 nM and the difference in IC50 with vs without preincubation [2] was no more than 3000 nM.
For `CC(C)Oc1ccc(S(=O)(=O)N2C[C@@H](C)[C@@H](n3nc(CC(=O)O)c4ccc(F)cc43)C2)c(F)c1` [Compound I-52], the IC50 (CYP1A2) was greater than 20000 nM, the Ki (CRTH2 [1]; [5]) was less than 100 nM and the Ki (CRTH2 [1]) was 5.1 nM. The difference in IC50 with vs without preincubation [2] was no more than 3000 nM.
`CC(C)Oc1ccc(S(=O)(=O)N2C[C@H](n3nc(CC(=O)O)c4ccc(F)cc43)C[C@H]2C#N)cc1` [Compound I-7] gave an IC50 (CRTH2 [4]) of 34 nM, an IC50 (CYP1A2) greater than 20000 nM and a Ki (CRTH2 [1]; [5]) of less than 100 nM. It also gave a difference in IC50 with vs without preincubation [2] of no more than 3000 nM.
